Data on 46 molecules can be found in a melting point compilation (Tetko et al.).

For orientation: melting point means the temperature, or range, at which the solid turns liquid.

For `CC(=O)Nc1cccc2ccccc12`, the melting point was in the range of 156 to 160 °C.
Then `CC(=O)c1nn2c(C(F)(F)F)nnc2s1`, with 200 °C; and `CCSC#N`, with -85.5 °C.
Then `FC(Cl)C(F)(F)Cl` (stereo unspecified), with -78 °C; and `CCCCN(CCN(CCCC)C(=O)N1CCOCC1)C(=O)N1CCOCC1`, with 41.5 °C.
For the molecule `O=C(Nc1nc(-c2ccccc2)cs1)c1ccccc1`, the melting point is 123 °C.
As for `Nc1ccc(N2CCCCC2)cc1`, the figure is 27 °C.
Then `Fc1cc(I)ccn1`, with 58 °C; and `NC(=O)COc1ccccc1`, with 102 °C; and `N[C@@H]1CC[C@H](C(=O)O)C1`, with 192 °C.
For `CC(C)(C)N(NC(=O)c1ccccc1)C(=O)c1ccccc1Br`, the melting point was determined as 196 °C.
As for `O=C1NCCN1CCO`, the figure is 49 °C; as for `CC(C)(C)OC(=O)c1cccc(N)c1`, 81 to 83 °C; as for `O=C1OC(c2ccccc2)=N/C1=C\c1ccc(Br)o1`, 122 °C.
As for `CCc1ccnc(N)c1`, the figure is 67 °C; as for `O=[N+]([O-])c1ccc(NN=CC2=C(/C=C/c3ccccc3)CCCC2)c([N+](=O)[O-])c1`, 261 to 262 °C.
As for `COc1ccc(C(=O)c2ccc(Cl)cc2)cc1OC`, the figure is 109 °C; as for `CC1CC(OC(=O)C(O)c2ccccc2)CC(C)(C)C1` (stereo unspecified), 56 °C.
Take `CC12CCC(C(C(=O)c3cccc4ccccc34)C1=O)C2(C)C` (stereo unspecified): the melting point came out at 104 °C.
As for `Oc1cccc2c1CCCC2O` (stereo unspecified), the figure is 132 to 134 °C; as for `CCOC(=O)c1ccc(COC(C)=O)o1`, 42.3 °C; as for `SCCCS`, -79 °C.
On to `Cn1c(=O)c(C2=NNC(=O)C2=NNc2cccnc2)c(O)c2ccccc21`, for which the melting point amounted to 230 °C.
As for `CC(=O)Oc1c(I)cc(I)cc1C(=O)Nc1ccc(Cl)cc1`, the figure is 216 °C; as for `NCCCCCCCCCCC(=O)O`, 191 °C; as for `CC(=O)OCC1OC(n2cnc3c(N)ncnc32)C(OC(C)=O)C1OC(C)=O` (stereo unspecified), 174 to 175 °C.
Then `O=[N+]([O-])c1cc([N+](=O)[O-])c(Cl)c(C(F)(F)F)c1`, with 63 °C.
Then `Nc1cc(-c2ccc(Cl)cc2)nc(N)n1`, with 158 to 161 °C.
As for `FC=C(F)F`, the melting point is -78 °C.
With `O=C(O)C=Cc1ccc(Sc2ccccn2)c([N+](=O)[O-])c1`, the melting point lay in the range of 177 to 178 °C.
Then `Cc1ccc(C)c(C)n1`, with 37 °C; and `N#Cc1ccc2c(c1)N(CCCN1CCC(O)CC1)c1ccccc1S2`, with 116 °C; and `CC1(C)C(Br)=C(Br)C(=O)C1Br` (stereo unspecified), with 87 °C.
Then `NNc1ccccn1`, with 46.6 °C; and `CCCCN1CCOCC1`, with -57.1 °C; and `O=Cc1ccc(-c2cccnc2)cc1`, with 55 °C.
Then `Oc1cc(-c2ccccc2)c2cc(Br)cc(Br)c2n1`, with 210 to 211 °C; and `ClC[Si]12OCCN(CCO1)CCO2`, with 221 °C; and `O=C(O)c1ccc(-c2ccc(O)cc2)cc1`, with 316 °C.
In turn, `CCN(C(C)=O)c1ccccc1` registered a melting point of 55 °C.
Then `NC(Cc1c[nH]c2ccc(F)cc12)C(=O)O` (racemic), with 238 to 239 °C; and `O=C1C(C(O)c2ccc(O)cc2)C(C(F)(F)F)=NN1c1ccccc1` (stereo unspecified), with 211 °C.
On to `CCCC(C)(CO)CO`, for which the melting point worked out at 62.5 °C.
Then `CC(=O)C(C(C)=O)=C1SCCCS1`, with 91 °C; and `CNCCC(Oc1ccc(C(F)(F)F)cc1)c1ccccc1` (stereo unspecified), with 180 °C; and `CCn1nc(C)c(Br)c1C(=O)O`, with 158 to 162 °C.
